PubChem BioAssay (NCI)
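Following 48 hours of exposure in 96-well plates, responses at five concentrations were used to interpolate endpoints linearly. Here, GI50 denotes the concentration required for 50% inhibition of growth. The concentration for full growth arrest is given as TGI.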

Columns and labels:
Assay in all cases: inhibition of tumour cell growth, NCI panel, 48 h
[1] = test system: MDA-MB-468 breast
[2] = test system: OVCAR-5 ovarian
[3] = test system: A498 renal
[4] = test system: RPMI-8226 leukemia
[5] = test system: NCI-H226 lung
[6] = test system: A549 NSCLC
[7] = test system: NCI-H23 lung
[8] = test system: SF-295 CNS
[9] = test system: HS 578T breast
[10] = test system: MOLT-4 leukemia
[11] = test system: UACC-257 melanoma
[12] = test system: K-562 leukemia
[13] = test system: HOP-62 NSCLC
[14] = test system: BT-549 breast
[15] = test system: SK-MEL-5 melanoma
[16] = test system: HT29 colon
[17] = test system: 786-0 renal
[18] = test system: HOP-92 NSCLC
[19] = test system: CCRF-CEM leukemia
[20] = test system: SK-MEL-28 melanoma
[21] = test system: MALME-3M melanoma
[22] = test system: KM12 colon
[23] = test system: SK-OV-3 ovarian
[24] = test system: U251 CNS
[25] = test system: LOX IMVI melanoma
[26] = test system: EKVX NSCLC
[27] = test system: COLO 205 colon
[28] = test system: OVCAR-8 ovarian
[29] = test system: M14 melanoma
[30] = test system: NCI/ADR-RES ovarian
[31] = test system: OVCAR-4 ovarian
[32] = test system: UACC-62 melanoma
[33] = test system: SF-268 CNS
[34] = test system: RXF 393 renal
[35] = test system: HCT-15 colon
[36] = test system: MDA-MB-435
[37] = test system: TK-10 renal
[38] = test system: SN12C renal
[39] = test system: SK-MEL-2 melanoma
[40] = test system: SW-620 colon
[41] = test system: IGROV1 ovarian
[42] = test system: ACHN renal
[43] = test system: NCI-H522 lung
[44] = test system: SNB-75 CNS
[45] = test system: DU-145 prostate
[46] = test system: CAKI-1 renal
[47] = test system: PC-3 prostate
[48] = test system: HL-60(TB) leukemia
[49] = test system: MCF7 breast
[50] = test system: SF-539 CNS
[51] = test system: NCI-H460 lung
[52] = test system: HCT-116 colon
[53] = test system: HCC-2998 colon
[54] = test system: OVCAR-3 ovarian

COc1cc2ncn(-c3cc(OCc4ccccc4C(F)(F)F)c(C(C)=O)s3)c2cc1OC
GI50 [1]: > 23.3 µM | TGI [1]: > 25 µM

CN1CCN(Cc2ccc(NC(=O)c3cncc(C#Cc4cnn5ccccc45)c3)cc2C(F)(F)F)CC1
GI50 [1]: 0.965 µM | TGI [1]: 2.08 µM

COc1ccc(/C=C\c2cc(OC)c(OC)c(OC)c2)c(O)c1O
GI50 [1]: 0.0741 µM | TGI [1]: 21.4 µM

COc1cc(-c2ccc(NC(=O)NC3CC3)c(OC)c2)ccc1NC(=O)NC1CC1
GI50 [1]: > 100 µM | TGI [1]: > 100 µM

O=C(Nc1cccc(Cl)c1)c1cc(N=Nc2ccc([N+](=O)[O-])cc2Cl)ccc1O
GI50 [1]: 2.91 µM | TGI [1]: > 100 µM

C=C1CC[C@@H]2[C@]3(C)COC(c4cn[nH]c4-c4ccc(Br)cc4)O[C@@H]3CC[C@@]2(C)[C@@H]1C/C=C1/C(=O)OCC1O (some centres undefined)
GI50 [2]: 10 µM | TGI [2]: 23.1 µM | GI50 [3]: 16.8 µM | TGI [3]: 30.6 µM | GI50 [4]: 2.56 µM | TGI [4]: > 100 µM | GI50 [5]: 1.93 µM | TGI [5]: 4.32 µM | GI50 [6]: 11.1 µM | TGI [6]: 26.4 µM | GI50 [7]: 10.5 µM | TGI [7]: 23.1 µM | GI50 [8]: 12.1 µM | TGI [8]: 25.4 µM | GI50 [9]: 17.7 µM | TGI [9]: > 100 µM | GI50 [10]: 2.86 µM | TGI [10]: 13.6 µM | GI50 [11]: 11.8 µM | TGI [11]: 27.5 µM | GI50 [12]: 2.24 µM | TGI [12]: 15.4 µM | GI50 [13]: 18.9 µM | TGI [13]: 37.3 µM | GI50 [14]: 2.88 µM | TGI [14]: 12.3 µM | GI50 [15]: 10.4 µM | TGI [15]: 23.4 µM | GI50 [16]: 2.8 µM | TGI [16]: 10.5 µM | GI50 [17]: 5.75 µM | TGI [17]: 18.8 µM | GI50 [18]: 5.08 µM | TGI [18]: 22.7 µM | GI50 [19]: 2.81 µM | TGI [19]: 44.2 µM | GI50 [20]: 2.13 µM | TGI [20]: 4.95 µM | GI50 [21]: 3.98 µM | TGI [21]: 17.7 µM | GI50 [22]: 7.16 µM | TGI [22]: 29.2 µM | GI50 [23]: 16.8 µM | TGI [23]: 32.2 µM | GI50 [24]: 6.83 µM | TGI [24]: 19.9 µM | GI50 [25]: 1.37 µM | TGI [25]: 2.72 µM | GI50 [26]: 4.68 µM | TGI [26]: 17.7 µM | GI50 [27]: 4.45 µM | TGI [27]: 18.1 µM | GI50 [28]: 3.24 µM | TGI [28]: 61.9 µM | GI50 [29]: 3.4 µM | TGI [29]: 16.7 µM | GI50 [30]: 2.2 µM | TGI [30]: 6.91 µM | GI50 [31]: 5.02 µM | TGI [31]: 32.8 µM | GI50 [32]: 3.44 µM | TGI [32]: 15.8 µM | GI50 [33]: 16.5 µM | TGI [33]: 42.3 µM | GI50 [34]: 1.9 µM | TGI [34]: 4.42 µM | GI50 [35]: 1.97 µM | TGI [35]: 5.3 µM | GI50 [36]: 3.24 µM | TGI [36]: 15.3 µM | GI50 [37]: 18.4 µM | TGI [37]: 33.4 µM | GI50 [38]: 7.51 µM | TGI [38]: 21.5 µM | GI50 [39]: 5.85 µM | TGI [39]: 20.8 µM | GI50 [40]: 2.33 µM | TGI [40]: 6.36 µM | GI50 [41]: 13.8 µM | TGI [41]: 30.9 µM | GI50 [42]: 2.16 µM | TGI [42]: 6.16 µM | GI50 [43]: 2.08 µM | TGI [43]: 5.75 µM | GI50 [44]: 7.04 µM | TGI [44]: 25.7 µM | GI50 [45]: 8.24 µM | TGI [45]: 23.6 µM | GI50 [46]: 8.18 µM | TGI [46]: 22 µM | GI50 [47]: 4.08 µM | TGI [47]: 30.3 µM | GI50 [48]: 2.3 µM | TGI [48]: 17.6 µM | GI50 [49]: 2.13 µM | TGI [49]: 10.4 µM | GI50 [50]: 2.2 µM | TGI [50]: 5.67 µM | GI50 [51]: 12.6 µM | TGI [51]: 29.7 µM | GI50 [52]: 1.94 µM | TGI [52]: 5.19 µM | GI50 [53]: 9.11 µM | TGI [53]: 21.4 µM | GI50 [54]: 2.08 µM | TGI [54]: 4.49 µM | GI50 [1]: 2.47 µM | TGI [1]: 9.41 µM

Oc1ccc(CSc2nnc(-c3ccc(Cl)cc3)o2)c2cccnc12
GI50 [1]: 2.47 µM | TGI [1]: > 100 µM

O=C(NNC(=S)Nc1ccccc1)c1ccccn1
GI50 [1]: 2.84 µM | TGI [1]: 90.9 µM

CCOc1c(C#N)c2c(N)ncnc2n1C1OC(CO)C(O)C1O (centres undefined)
GI50 [1]: 1.75 µM | TGI [1]: 5.98 µM

O=C(Nc1cccnc1)c1ccc2ccc3ccc(C(=O)Nc4cccnc4)nc3c2n1
GI50 [1]: 0.0697 µM | TGI [1]: 0.442 µM

CC(C)(C)NC/C(=C\c1ccccc1)C(=O)c1ccccc1
GI50 [1]: 0.713 µM | TGI [1]: 2.18 µM

CCCCCCN(C)Cc1ccc(OCCOc2ccc(CN(C)CCCCCC)cc2)cc1
GI50 [1]: 1.16 µM | TGI [1]: 2.48 µM

CC(C)CCC(=O)[C@@H](C)[C@H]1[C@@H](OC2OCC(O)C(O)C2NS(C)(=O)=O)C[C@H]2[C@@H]3CC=C4C[C@@H](O)CC[C@]4(C)[C@H]3CC[C@]12C (some centres undefined)
GI50 [1]: 3.38 µM | TGI [1]: 11.2 µM

CC(=O)C1CCC2C3CC=C4CC(SC(=N)N)CCC4(C)C3CCC12C (centres undefined)
GI50 [1]: 1.54 µM | TGI [1]: 2.9 µM

O=C(Nc1nc(-c2ccc(Cl)cc2)nc2c1sc(=S)n2-c1ccccc1)C(F)(F)F
GI50 [1]: 3.79 µM | TGI [1]: 20.5 µM

COc1cc(/C=C\c2cc(/C=C\c3ccc(O)c(OC)c3)n(C(=O)CNc3ccc(Cl)cc3)n2)ccc1O
GI50 [1]: 3.17 µM | TGI [1]: 9.69 µM

Nc1nc(N)c2c(n1)NC(c1ccc(Cl)cc1)CC(c1ccc(Nc3nc(NCCO)nc(Nc4ccc(Cl)cc4)n3)cc1)=N2 (centres undefined)
GI50 [1]: 1.39 µM | TGI [1]: 2.79 µM

CCOC(=O)c1csc(NC(=O)COc2cccc(/C=C3\CSc4ccccc4C3=O)c2)n1
GI50 [1]: 0.0661 µM | TGI [1]: 0.185 µM

O=S(=O)(Nc1ccc2ccccc2c1)c1ccc(-c2cnc(C3CC3)o2)cc1
GI50 [1]: 0.327 µM | TGI [1]: 12 µM

CC[C@]12C=CCN3CC[C@@]4(c5ccc(OC)cc5N(C)[C@H]4[C@@](O)(C(=O)OC)[C@@H]1OC(=O)CCC(=O)N[C@H](Cc1c[nH]c4ccccc14)C(=O)OC)[C@@H]32
GI50 [1]: 1.64 µM | TGI [1]: 3.14 µM

C=C1CCC2C3(C)COC(c4ccc(Cl)cc4)OC3CCC2(C)C1/C=C/C1=CCOC1=O (centres undefined)
GI50 [1]: 0.502 µM | TGI [1]: 6.25 µM

COC(=O)c1ccc2c(c1)c1c(C)c3ccncc3c(C)c1n2C
GI50 [1]: 0.767 µM | TGI [1]: 15.2 µM

CC[C@@H](C)Nc1cc(C(=O)NC2CC3CCC(C2)N3c2ccc(C(=O)C3CC3)cn2)c(C)cc1C(N)=O (some centres undefined)
GI50 [1]: 0.0189 µM | TGI [1]: 0.0838 µM

O=C(Nc1ccc2c(c1)OCO2)C(=O)c1c[nH]c2cc(F)ccc12
GI50 [1]: 5.7 µM | TGI [1]: 67.9 µM

Cc1nnc(-c2ccc(C)c(-c3ccc(C(=O)NCc4ccc(Cl)cc4)cc3)c2)o1
GI50 [1]: 2.91 µM | TGI [1]: 15.1 µM

O=C(Cn1c(C(=O)c2ccccc2)nc2ccccc21)c1ccc(F)cc1
GI50 [1]: 2.02 µM | TGI [1]: 16.6 µM

CC(C)(C)c1ccc(O)c(CN(Cc2cc(C(C)(C)C)ccc2O)C2CCCCC2)c1
GI50 [1]: 4.4 µM | TGI [1]: 19.2 µM

CC1(O)Cc2c(O)c3c(c(O)c2CC1O)C(=O)C=CC3=O (centres undefined)
GI50 [1]: 0.553 µM | TGI [1]: 1.93 µM

C/C=C(/C)C(=O)OC1C=C(CO)C(=O)C(OC(=O)C(C)(O)C(C)Cl)C1C(C)C (centres undefined)
GI50 [1]: 1.05 µM | TGI [1]: 2.8 µM
